The values that follow come from ChEMBL document CHEMBL2440045, “The synthesis and anticancer activity of analogs of the indole phytoalexins brassinin, 1-methoxyspirobrassinol methyl ether and cyclobrassinin” (Bioorg Med Chem, 2013).

Experiment [1] has as its system A549. The experiment can be described thus: Selectivity index, ratio of IC50 for HUVEC to IC50 for human A549 cells.
Experiment [2] has as its system CCRF-CEM. Nature of the experiment: Selectivity index, ratio of IC50 for HUVEC to IC50 for human CCRF-CEM cells.
Experiment [3] relates to HeLa. Nature of the experiment: Selectivity index, ratio of IC50 for HUVEC to IC50 for human HeLa cells.
Experiment [4] in a line: Selectivity index, ratio of IC50 for HUVEC to IC50 for human MDA-MB-231 cells.
Experiment [5] deals with MCF7. The experiment can be described thus: Selectivity index, ratio of IC50 for HUVEC to IC50 for human MCF7 cells.
Experiment [6] concerns MDA-MB-231. The experiment can be described thus: Potency index, ratio of etoposide IC50 to compound IC50 for human MDA-MB-231 cells. The experiment is classed as functional.
In the next experiment the test system is HUVEC. Nature of the experiment: Cytotoxicity against HUVEC assessed as cell viability after 48 hrs by MTT assay. It counts as cell-based. The following applies: Homo sapiens. (In general: Tetrazolium dyes change colour on reduction, which living cells bring about.)
In experiment [7] the test system is A549. The experiment can be described thus: Antiproliferative activity against human A549 cells assessed as cell viability after 72 hrs by MTT assay. The experiment is classed as functional, cell-based. The following applies: A549, 72 h.
For experiment [8], the system named is HeLa. The experiment can be described thus: Antiproliferative activity against human HeLa cells assessed as cell viability after 72 hrs by MTT assay. The experiment is classed as functional, cell-based.
Experiment [9] concerns CCRF-CEM. Nature of the experiment: Antiproliferative activity against human CCRF-CEM cells assessed as cell viability after 72 hrs by MTT assay. The experiment is classed as functional, cell-based.
The test system of experiment [10] is MDA-MB-231. Nature of the experiment: Antiproliferative activity against human MDA-MB-231 cells assessed as cell viability after 72 hrs by MTT assay. The experiment is classed as functional, cell-based. The settings on record: MDA-MB-231, 72 h.
The test system of experiment [11] is Jurkat. The experiment can be described thus: Antiproliferative activity against human Jurkat cells assessed as cell viability after 72 hrs by MTT assay. It counts as functional, cell-based.
Experiment [12] has as its system MCF7. The experiment can be described thus: Antiproliferative activity against human MCF7 cells assessed as cell viability after 72 hrs by MTT assay. The experiment is classed as functional, cell-based. The settings on record: MCF7, 72 h.
In experiment [13] the test system is Jurkat. The experiment can be described thus: Selectivity index, ratio of IC50 for HUVEC to IC50 for human Jurkat cells.

Bounds are passed on as bounds.

As usually defined, the IC50 is the midpoint of a concentration-inhibition curve.

For `O=[N+]([O-])c1ccc(NC2=NCc3c([nH]c4ccccc34)S2)cc1`, the “Ratio IC50” value in the experiment on A549 [1] is given as 1.8; with CCRF-CEM [2] it was 11.6; in the experiment with HeLa [3] it was 6.2; in [4], 10.7; in the experiment with MCF7 [5] it was 7.5; in the experiment with MDA-MB-231 [6], 2. The “Ratio IC50” value with Jurkat [13] came out at 7.8. In addition, the 50% inhibitory concentration (IC50) in the experiment on HUVEC is 58 µM; in the experiment on A549 [7], 32 µM; in the experiment on HeLa [8], 9.3 µM; in the experiment with CCRF-CEM [9] it was 5 µM; with MDA-MB-231 [10] it was 5.4 µM; in the experiment with Jurkat [11], 7.4 µM. Moreover, in the experiment on MCF7 [12], the IC50 came to 7.7 µM.

Regarding `FC(F)(F)c1ccc(NC2=NCc3c([nH]c4ccccc34)S2)cc1`, the “Ratio IC50” value was found to be 1.7 in the experiment with A549 [1]; 6.9 in the experiment on CCRF-CEM [2]; 0.9 in the experiment on HeLa [3]; 1.9 in experiment [4]; 1.9 in the experiment with MCF7 [5]; 6.9 in the experiment on Jurkat [13]. In addition, the concentration for half-maximal inhibition (IC50) was 68.5 µM with HUVEC; 40.8 µM with A549 [7]; 72.4 µM in the experiment with HeLa [8]; 10 µM in the experiment on CCRF-CEM [9]; 36.2 µM in the experiment with MDA-MB-231 [10]; 10 µM in the experiment with Jurkat [11]. In addition, the 50% inhibitory concentration (IC50) in the experiment with MCF7 [12] is 35.7 µM.

With `Cc1ccc(NC2=NCc3c([nH]c4ccccc34)S2)cc1`, the “Ratio IC50” value in the experiment with A549 [1] is recorded as >3.2; with CCRF-CEM [2], >20; in the experiment on HeLa [3] it was >3.6; in [4], >12.6; with MCF7 [5], 3.1; with MDA-MB-231 [6], 2. Further, the “Ratio IC50” value in the experiment on Jurkat [13] is >12.5. For the same compound, the 50% inhibitory concentration (IC50) in the experiment with HUVEC was > 100 µM; in the experiment with A549 [7], 31.2 µM; in the experiment with HeLa [8], 27.5 µM; in the experiment with CCRF-CEM [9] it was 5 µM; with MDA-MB-231 [10], 7.9 µM; with Jurkat [11], 8 µM. For the same compound, the IC50 in the experiment with MCF7 [12] was 32.1 µM.

Consider `Brc1ccc(NC2=NCc3c([nH]c4ccccc34)S2)cc1`, for which the “Ratio IC50” value in the experiment with A549 [1] was 2; in the experiment on CCRF-CEM [2], >6.5; in the experiment with HeLa [3], 2.2; in [4], 7.5; in the experiment with MCF7 [5] it was 2.2; with MDA-MB-231 [6], 2. In addition, in the experiment on Jurkat [13], the “Ratio IC50” value is given as 7.8. For the same compound, the IC50 is 64.8 µM with HUVEC; 32 µM with A549 [7]; 30 µM with HeLa [8]; < 10 µM in the experiment with CCRF-CEM [9]; 8.6 µM in the experiment on MDA-MB-231 [10]; 8.3 µM with Jurkat [11]. Moreover, the IC50 in the experiment with MCF7 [12] was 29.8 µM.

On to `COc1ccc(NC2=NCc3c([nH]c4ccccc34)S2)cc1`, for which the “Ratio IC50” value in the experiment on A549 [1] was 1.7; in the experiment on CCRF-CEM [2], >5.1; in the experiment with HeLa [3], 3.7; in experiment [4] it was 7; in the experiment on MCF7 [5] it was 1.8; with MDA-MB-231 [6], 2. The “Ratio IC50” value in the experiment on Jurkat [13] amounted to 6.2. Moreover, the IC50 with HUVEC was 51 µM; in the experiment on A549 [7], 30.1 µM; with HeLa [8] it was 13.9 µM; with CCRF-CEM [9], < 10 µM; with MDA-MB-231 [10] it was 7.3 µM; in the experiment with Jurkat [11], 8.2 µM. Further, in the experiment with MCF7 [12], the IC50 came out at 28.7 µM.

In the case of `Clc1ccc(NC2=NCc3c([nH]c4ccccc34)S2)cc1`, the “Ratio IC50” value in the experiment with A549 [1] was found to be 1.1; with CCRF-CEM [2], 0.3; with HeLa [3], 0.3; in experiment [4], 1.2; in the experiment on MCF7 [5] it was 0.3; in the experiment on MDA-MB-231 [6] it was 2. In addition, in the experiment on Jurkat [13], the “Ratio IC50” value is reported as 0.8. The half-maximal inhibitory concentration (IC50) in the experiment with HUVEC was determined as 8.5 µM; in the experiment with A549 [7], 7.4 µM; in the experiment with HeLa [8], 32.4 µM; with CCRF-CEM [9], 29.8 µM; in the experiment on MDA-MB-231 [10], 7.2 µM; in the experiment with Jurkat [11] it was 9.8 µM. In addition, in the experiment with MCF7 [12], the IC50 stood at 30 µM.

For the compound `CSC1=NCc2c([nH]c3ccccc23)S1` [CYCLOBRASSININ], the “Ratio IC50” value with A549 [1] is recorded as 0.8; in the experiment with CCRF-CEM [2], 2.2; with HeLa [3], 1; in experiment [4], 1.2; in the experiment with MCF7 [5], 0.8; in the experiment with Jurkat [13], 1.9. The IC50 with HUVEC was found to be 57.9 µM; with A549 [7] it was 70.3 µM; in the experiment with HeLa [8] it was 57.2 µM; in the experiment with CCRF-CEM [9], 26.2 µM; in the experiment with MDA-MB-231 [10], 48.3 µM; in the experiment on Jurkat [11], 29.5 µM. Moreover, in the experiment with MCF7 [12], the IC50 was found to be 72 µM.

Turning to `Fc1ccc(NC2=NCc3c([nH]c4ccccc34)S2)cc1`, the “Ratio IC50” value was 1.4 in the experiment on A549 [1]; 24.7 in the experiment on CCRF-CEM [2]; 1.9 with HeLa [3]; 4.7 in experiment [4]; 1.2 in the experiment on MCF7 [5]; 2 in the experiment with MDA-MB-231 [6]. Also, the “Ratio IC50” value in the experiment with Jurkat [13] is given as 5.3. Besides, the half-inhibitory concentration (IC50) was found to be 42 µM with HUVEC; 29 µM in the experiment on A549 [7]; 21.7 µM with HeLa [8]; 1.7 µM with CCRF-CEM [9]; 8.9 µM with MDA-MB-231 [10]; 8 µM in the experiment with Jurkat [11]. In the experiment on MCF7 [12], the half-maximal inhibitory concentration (IC50) was found to be 33.8 µM.

Take `FC(F)(F)c1cc(NC2=NCc3c([nH]c4ccccc34)S2)cc(C(F)(F)F)c1`: the “Ratio IC50” value is 0.7 in the experiment on A549 [1]; 6.6 in the experiment with CCRF-CEM [2]; 0.7 in the experiment on HeLa [3]; 1.3 in [4]; 1.3 in the experiment on MCF7 [5]; 6.6 in the experiment with Jurkat [13]. Further, the half-maximal inhibitory concentration (IC50) was determined as 49.6 µM in the experiment with HUVEC; 70.1 µM with A549 [7]; 69.8 µM in the experiment on HeLa [8]; 7.5 µM in the experiment with CCRF-CEM [9]; 37.1 µM with MDA-MB-231 [10]; 7.5 µM with Jurkat [11]. The IC50 in the experiment with MCF7 [12] worked out at 38.7 µM.
